Measured values reported in patent US20080319043A1, “3,6-Disubstituted Azabicyclo (3.1.0) Hexane Derivatives as Muscarinic Receptor Antagonists” (priority 2005, published 2008).

Tests used:
[1] = tested on: isolated rat bladder; assay: tissue or blood; details: read-out: pKb (converted)

SMILES | melting point [°C] | Kb [1] [nM]
O=C(NCC1C2CNCC21)C(O)(c1ccccc1)c1cccs1 (centres unmarked) [Compound No. 18, N-(3-Azabicyclo[3.1.0]hex-6-ylmethyl)-2-hydroxy-2-phenyl-2-(2-thienyl)acetamide] | 70 to 75 | –
Cc1cccc(C(O)(C(=O)OCC2C3CNCC32)c2cccc(C)c2)c1 (centres unmarked) [Compound No. 27, 3-Azabicyclo[3.1.0]hex-6-ylmethyl hydroxy[bis(3-methylphenyl)]acetate] | 105 to 108 | –
Nc1cccc(CN2CC3C(CNC(=O)C(O)(c4ccccc4)C4CCCC4)C3C2)n1 (centres unmarked) [Compound No. 51, N-({3-[(6-Aminopyridin-2-yl)methyl]-3-azabicyclo[3.1.0]hex-6-yl}methyl)-2-cyclopentyl-2-hydroxy-2-phenylacetamide] | – | 2.51 to 39.8
CC1C2C(CNC(=O)C(O)(c3ccccc3)C3CCCC3)C2CN1Cc1ccccc1 (centres unmarked) [Compound No. 60, N-[(3-Benzyl-2-methyl-3-azabicyclo[3.1.0]hex-6-yl)methyl]-2-cyclopentyl-2-hydroxy-2-phenylacetamide] | – | 2.51 to 39.8
O=C(NCC1C2CN(Cc3ccc4c(c3)OCO4)CC12)C(O)(c1ccccc1)C1CCCCC1 (centres unmarked) [Compound No. 80, N-{[3-(1,3-Benzodioxol-5-ylmethyl)-3-azabicyclo[3.1.0]hex-6-yl]methyl}-2-cyclohexyl-2-hydroxy-2-phenylacetamide] | – | 2.51 to 39.8
